Among the test systems are SK-MEL-2 melanoma; NCI-H460 lung; SF-295 CNS; IGROV1 ovarian; PC-3 prostate; RPMI-8226 leukemia; OVCAR-8 ovarian; OVCAR-3 ovarian; HT29 colon; HL-60(TB) leukemia.
Common to all, as to test: inhibition of tumour cell growth, NCI panel, 48 h

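Exposure lasted 48 hours, with cells grown in 96-well plates and compounds tested at five concentrations. At the GI50, growth is halved. TGI: concentration producing complete growth inhibition.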

For `COc1cc(OC)c(C(=O)/C=C/c2cccc(C(F)(F)F)c2)c(OC)c1`, the GI50 in the experiment on SK-MEL-2 melanoma is 1.22 µM; in the experiment with NCI-H460 lung, 1.08 µM; in the experiment with SF-295 CNS, 1.67 µM; in the experiment with IGROV1 ovarian, 1.71 µM; in the experiment on PC-3 prostate it was 1.64 µM; with RPMI-8226 leukemia, 1.03 µM. Also, the figures for the GI50 in the experiment with OVCAR-8 ovarian, in the experiment with OVCAR-3 ovarian and in the experiment on HT29 colon were 1.41 µM, 2.03 µM and 1.69 µM, respectively. Besides, the TGI in the experiment with SK-MEL-2 melanoma was determined as 3.37 µM; in the experiment on NCI-H460 lung, 2.67 µM; with SF-295 CNS it was 6.72 µM; in the experiment on IGROV1 ovarian it was 5.6 µM; in the experiment on PC-3 prostate, 6.05 µM; with RPMI-8226 leukemia it was 2.85 µM. For the same molecule, the TGI in the experiment on OVCAR-8 ovarian is 5.86 µM; in the experiment on OVCAR-3 ovarian, 6.89 µM; in the experiment on HT29 colon, 4.75 µM.
Turning to `CCc1nc(N)nc(N)c1-c1ccc(NC)c([N+](=O)[O-])c1`, the TGI with SK-MEL-2 melanoma is over 92.5 µM; with NCI-H460 lung it was over 100 µM; in the experiment with SF-295 CNS, over 94.7 µM; in the experiment on IGROV1 ovarian, over 100 µM; with PC-3 prostate, over 100 µM; in the experiment with HL-60(TB) leukemia, over 51.8 µM. In addition, the TGI in the experiment with RPMI-8226 leukemia is over 43.3 µM; in the experiment on OVCAR-8 ovarian, over 100 µM; in the experiment on OVCAR-3 ovarian, over 100 µM; in the experiment on HT29 colon, 33.7 µM.
Take `Nc1ccccc1C#C/C=C\C#Cc1ccccc1N`: the GI50 in the experiment with SK-MEL-2 melanoma is 16.3 µM; in the experiment on NCI-H460 lung it was 6.51 µM; with SF-295 CNS, 7.71 µM; in the experiment on IGROV1 ovarian, 34.6 µM; in the experiment with PC-3 prostate it was 7.39 µM; with HL-60(TB) leukemia, 4.18 µM. The figures for the GI50 in the experiment with OVCAR-8 ovarian, with OVCAR-3 ovarian and in the experiment on HT29 colon were 28.1 µM, 1.72 µM and 32 µM, respectively. The TGI is 60.7 µM in the experiment on SK-MEL-2 melanoma; 80.4 µM with NCI-H460 lung; 25.4 µM in the experiment on SF-295 CNS; over 100 µM in the experiment on IGROV1 ovarian; 29.1 µM in the experiment on PC-3 prostate; 33.7 µM in the experiment on HL-60(TB) leukemia. For the same molecule, the values for the TGI in the experiment with OVCAR-8 ovarian, with OVCAR-3 ovarian and with HT29 colon were 74.7 µM, 9.1 µM and over 100 µM, respectively.
For `CCCCC(CC)COC(=O)C[N+](C)(C)CCOC(c1ccccc1)c1ccccc1` (centres undefined), the GI50 was 1.95 µM in the experiment on SK-MEL-2 melanoma; 4.77 µM in the experiment on NCI-H460 lung; 9.63 µM in the experiment on SF-295 CNS; 1.82 µM with IGROV1 ovarian; 3.21 µM in the experiment with PC-3 prostate; 4.02 µM with OVCAR-8 ovarian. Moreover, the GI50 is 1.79 µM in the experiment with OVCAR-3 ovarian and 3.55 µM in the experiment on HT29 colon. Besides, the TGI in the experiment on SK-MEL-2 melanoma was found to be 4.13 µM; in the experiment with NCI-H460 lung it was 18.8 µM; in the experiment with SF-295 CNS, 26.3 µM; with IGROV1 ovarian it was 3.58 µM; with PC-3 prostate it was 11.7 µM; with OVCAR-8 ovarian, 17.5 µM. Also, the TGI came to 3.64 µM with OVCAR-3 ovarian and 13.1 µM in the experiment on HT29 colon.
As for `CC12OC(C(=O)C13CC3)C1C(=O)c3ccc4c(ccc5ccccc54)c3C(=O)C12` (centres undefined), the GI50 in the experiment with SK-MEL-2 melanoma was 53.1 µM; with NCI-H460 lung, 15.6 µM; with IGROV1 ovarian, 28.9 µM; in the experiment with PC-3 prostate it was 19 µM; in the experiment on HL-60(TB) leukemia it was 33.2 µM; in the experiment on OVCAR-8 ovarian, 30.4 µM. Moreover, in the experiment on HT29 colon, the GI50 was 55.9 µM. Besides, the TGI with SK-MEL-2 melanoma was over 100 µM; with NCI-H460 lung it was 55.6 µM; with IGROV1 ovarian it was over 100 µM; in the experiment with PC-3 prostate it was 80.7 µM; in the experiment with HL-60(TB) leukemia, over 100 µM; in the experiment on OVCAR-8 ovarian, over 100 µM. In the experiment with HT29 colon, this molecule registered a TGI of over 100 µM.
Take `O=C1c2cccnc2-c2nc(-c3ccc(Cl)cc3)cc3c2c1nc1ccccc13`: the GI50 with SK-MEL-2 melanoma is 76.5 µM; in the experiment on NCI-H460 lung it was 37.2 µM; in the experiment on SF-295 CNS, 22.9 µM; with IGROV1 ovarian, 32.3 µM; in the experiment on PC-3 prostate it was 47 µM; in the experiment on HL-60(TB) leukemia, 37.6 µM. Besides, the GI50 was 56.5 µM in the experiment on RPMI-8226 leukemia, 98.4 µM in the experiment with OVCAR-8 ovarian and 24 µM in the experiment with OVCAR-3 ovarian. In addition, the TGI in the experiment on SK-MEL-2 melanoma, in the experiment with NCI-H460 lung, in the experiment on SF-295 CNS, with IGROV1 ovarian, in the experiment on PC-3 prostate and in the experiment on HL-60(TB) leukemia was over 100 µM throughout. The TGI in the experiment with RPMI-8226 leukemia was over 100 µM; in the experiment with OVCAR-8 ovarian, over 100 µM; in the experiment on OVCAR-3 ovarian it was 75 µM.
As to `CC1=C(/C=C/Cl)CC(Cl)C(C)(Cl)C1` (centres undefined), the TGI with SK-MEL-2 melanoma was over 100 µM; in the experiment with NCI-H460 lung it was over 100 µM; in the experiment on SF-295 CNS it was over 100 µM; in the experiment on IGROV1 ovarian it was over 100 µM; with PC-3 prostate, over 100 µM; with HL-60(TB) leukemia, 60.5 µM. In addition, the TGI in the experiment with OVCAR-8 ovarian and in the experiment on HT29 colon was over 100 µM in each case.
In the case of `CCc1nc2cc(F)c(/C=C/C(=O)NO)cc2c(=O)n1CCc1ccccc1`, the GI50 was 0.293 µM in the experiment with SK-MEL-2 melanoma; 0.31 µM in the experiment with NCI-H460 lung; 0.234 µM in the experiment with SF-295 CNS; 0.526 µM in the experiment with PC-3 prostate; 0.415 µM in the experiment on HL-60(TB) leukemia; 0.387 µM in the experiment on RPMI-8226 leukemia. The figures for the GI50 in the experiment with OVCAR-8 ovarian, in the experiment on OVCAR-3 ovarian and in the experiment with HT29 colon were 0.287 µM, 0.323 µM and 0.343 µM, respectively. In addition, the TGI with SK-MEL-2 melanoma is 0.863 µM; in the experiment on NCI-H460 lung, 3.17 µM; in the experiment with SF-295 CNS it was 0.617 µM; in the experiment on PC-3 prostate it was 59.4 µM; with HL-60(TB) leukemia, over 100 µM; with RPMI-8226 leukemia it was 19.9 µM. The results for the TGI in the experiment with OVCAR-8 ovarian, in the experiment on OVCAR-3 ovarian and with HT29 colon were 2.24 µM, 10.8 µM and 12.1 µM, respectively.
`CCCCNC1CCCCC[C@H]1O` (some centres undefined): the TGI with SK-MEL-2 melanoma, in the experiment on NCI-H460 lung, in the experiment on SF-295 CNS, with IGROV1 ovarian, with HL-60(TB) leukemia and in the experiment on RPMI-8226 leukemia was over 100 µM throughout. The TGI in the experiment with OVCAR-8 ovarian, in the experiment with OVCAR-3 ovarian and in the experiment with HT29 colon was over 100 µM throughout.

(Values after PubChem BioAssay (NCI).)
